From patent US11208397B2, “Small molecule antagonists of sumo related modification of CRMP2 and uses thereof” (Arizona Board of Regents on Behalf of the University of …, priority 2017, dated 2021)
Entries after “also recorded” stand apart in the source; their conditions may differ. Like-named read-outs stand apart in the source and are kept apart here.

Tests used:
[1] = system: NaV1.7 channels; assay: Sodium currents of sensory neurons incubated with compound for indicated times (direct block test); assay type: cell-based; design: dose or concentration left out as unconfirmed; conditions: primary rat sensory neurons
Protocol: Primary rat sensory neurons were incubated for the indicated times with DMSO 0.1% or […] AZ194. Left: Bar graphs represent normalized peak sodium current density±s.e.m. from at least 14 cells per condition from 3 separate rats.*p<0.05, Kruskal-Wallis test. Middle: current voltage relationship of sodium currents from rat sensory neurons incubated for the indicated times with DMSO 0.1% or […] AZ194. Right: biophysical properties of inactivation were not altered by AZ194 at any of the time points versus control.
Primary rat sensory neurons were incubated for the indicated times with DMSO 0.1% or 5 mM AZ194.

[2] = system: Penk mRNA; assay: Penk (proenkephalin) mRNA expression in cultured DRG neurons; assay type: cell-based; conditions: exposure 6 hr, cultured rat DRG neurons
[3] = system: spared nerve injury (SNI) rats; assay: Spared nerve injury (SNI) model of neuropathic pain; assay type: in vivo, rat
Protocol: FIG. 4: AZ194 reduces spared nerve injury (SNI) induced nociceptive behaviors. Rats received spared nerve injury (SNI) on the left hind paw. […] Right panel: Area under the curve (AUC), using the trapezoid method, for PWT (summary for data shown in the time course on the left) are shown. *p<0.05, one-way analysis of variance with Dunnett's post hoc analysis. Error bars represent mean±s.e.m.
AZ194 was evaluated for efficacy in the spared nerve injury (SNI) model (see, e.g., Decosterd I, & Woolf C J (2000) Pain 87: 149-158) of neuropathic pain. […] Such experiments also determined the AUC to assess effects over the full experimental duration.
Under isoflurane anesthesia (5% induction, 2.5% maintenance in 2 L/min air), skin on the lateral surface of the left hind thigh was incised. The biceps femoris muscle was bluntly dissected to expose the three terminal branches of the sciatic nerve (see, e.g., Decosterd I, & Woolf C J (2000) Pain 87: 149-158). Briefly, the common peroneal and tibial branches were tightly ligated with 4-0 silk and axotomized 2.0 mm distal to the ligation. Sham animals underwent the same operation; however the nerves were exposed and not ligated. Closure of the incision was made in two layers. The muscle was sutured once with 5-0 absorbable suture and skin was auto-clipped. Animals were allowed to recover for 5-7 days before any testing.

[4] = system: TTX-S NaV1.7 currents; assay type: cell-based, human
[5] = system: NaV1.7; assay type: cell-based, rat
[6] = molecular target: T1, CaV2.2 (Rattus norvegicus, UniProt Q02294); assay: Peak CaV2.2 currents in DRGs; assay type: cell-based; conditions: 20 μM
T1 construct: endogenous in cells; host or cells: DRG neurons
T1 sequence (Q02294 whole entry): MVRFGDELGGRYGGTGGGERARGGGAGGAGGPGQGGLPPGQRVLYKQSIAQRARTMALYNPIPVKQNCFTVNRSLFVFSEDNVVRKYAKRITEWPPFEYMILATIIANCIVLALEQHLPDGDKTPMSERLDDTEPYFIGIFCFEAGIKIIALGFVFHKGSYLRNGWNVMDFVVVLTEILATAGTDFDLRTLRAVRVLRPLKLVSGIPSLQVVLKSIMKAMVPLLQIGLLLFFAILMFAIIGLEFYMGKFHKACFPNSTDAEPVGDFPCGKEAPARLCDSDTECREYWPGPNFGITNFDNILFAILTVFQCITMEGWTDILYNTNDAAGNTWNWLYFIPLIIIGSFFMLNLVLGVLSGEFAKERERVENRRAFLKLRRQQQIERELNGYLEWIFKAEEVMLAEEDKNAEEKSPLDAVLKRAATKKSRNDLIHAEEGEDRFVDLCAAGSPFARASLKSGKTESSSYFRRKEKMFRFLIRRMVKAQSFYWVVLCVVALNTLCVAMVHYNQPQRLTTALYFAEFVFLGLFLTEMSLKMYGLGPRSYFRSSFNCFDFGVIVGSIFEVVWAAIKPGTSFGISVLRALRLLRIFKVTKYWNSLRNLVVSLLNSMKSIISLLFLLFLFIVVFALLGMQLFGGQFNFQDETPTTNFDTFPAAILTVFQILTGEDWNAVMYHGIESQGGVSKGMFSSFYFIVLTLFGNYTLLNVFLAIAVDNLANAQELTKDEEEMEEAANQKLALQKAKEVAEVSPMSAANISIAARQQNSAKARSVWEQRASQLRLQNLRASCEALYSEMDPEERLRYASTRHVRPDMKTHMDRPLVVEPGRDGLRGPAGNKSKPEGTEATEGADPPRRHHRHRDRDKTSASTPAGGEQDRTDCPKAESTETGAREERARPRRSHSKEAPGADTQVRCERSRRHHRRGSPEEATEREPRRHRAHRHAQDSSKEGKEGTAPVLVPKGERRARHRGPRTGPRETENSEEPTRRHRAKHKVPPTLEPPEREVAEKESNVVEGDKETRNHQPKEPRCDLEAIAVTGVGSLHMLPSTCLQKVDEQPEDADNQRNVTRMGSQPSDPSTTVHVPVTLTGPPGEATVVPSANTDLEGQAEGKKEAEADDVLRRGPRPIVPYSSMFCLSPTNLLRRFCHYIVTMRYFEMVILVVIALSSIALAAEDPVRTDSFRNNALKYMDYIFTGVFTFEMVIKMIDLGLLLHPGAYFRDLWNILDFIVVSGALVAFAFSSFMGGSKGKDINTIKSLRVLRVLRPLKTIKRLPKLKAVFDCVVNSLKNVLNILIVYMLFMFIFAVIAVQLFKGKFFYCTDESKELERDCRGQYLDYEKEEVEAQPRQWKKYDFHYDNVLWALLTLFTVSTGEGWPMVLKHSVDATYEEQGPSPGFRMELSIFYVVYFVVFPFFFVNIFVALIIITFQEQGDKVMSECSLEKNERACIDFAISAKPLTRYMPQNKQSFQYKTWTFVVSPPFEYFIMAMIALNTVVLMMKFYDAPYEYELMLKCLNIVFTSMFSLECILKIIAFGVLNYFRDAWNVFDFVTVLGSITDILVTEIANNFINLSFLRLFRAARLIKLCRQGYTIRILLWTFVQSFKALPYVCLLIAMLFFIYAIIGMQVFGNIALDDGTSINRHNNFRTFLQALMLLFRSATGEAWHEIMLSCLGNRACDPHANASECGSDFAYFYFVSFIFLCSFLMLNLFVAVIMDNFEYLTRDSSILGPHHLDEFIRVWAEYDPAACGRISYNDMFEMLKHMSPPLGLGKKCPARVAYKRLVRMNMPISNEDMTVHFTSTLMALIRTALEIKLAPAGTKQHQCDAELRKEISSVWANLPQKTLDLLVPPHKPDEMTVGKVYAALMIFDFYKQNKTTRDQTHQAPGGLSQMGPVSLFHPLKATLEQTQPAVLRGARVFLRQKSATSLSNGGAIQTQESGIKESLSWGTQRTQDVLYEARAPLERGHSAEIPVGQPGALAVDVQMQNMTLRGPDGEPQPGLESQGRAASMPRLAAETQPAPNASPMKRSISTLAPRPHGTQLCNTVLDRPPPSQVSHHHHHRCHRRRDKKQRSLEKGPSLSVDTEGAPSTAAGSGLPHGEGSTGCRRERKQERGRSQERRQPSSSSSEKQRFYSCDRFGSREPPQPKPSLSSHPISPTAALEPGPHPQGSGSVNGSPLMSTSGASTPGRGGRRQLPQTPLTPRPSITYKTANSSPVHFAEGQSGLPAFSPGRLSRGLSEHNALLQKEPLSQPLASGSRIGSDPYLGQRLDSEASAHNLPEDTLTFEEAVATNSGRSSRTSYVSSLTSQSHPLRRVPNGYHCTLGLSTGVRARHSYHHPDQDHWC
T1 sequence (P54287 whole entry partner): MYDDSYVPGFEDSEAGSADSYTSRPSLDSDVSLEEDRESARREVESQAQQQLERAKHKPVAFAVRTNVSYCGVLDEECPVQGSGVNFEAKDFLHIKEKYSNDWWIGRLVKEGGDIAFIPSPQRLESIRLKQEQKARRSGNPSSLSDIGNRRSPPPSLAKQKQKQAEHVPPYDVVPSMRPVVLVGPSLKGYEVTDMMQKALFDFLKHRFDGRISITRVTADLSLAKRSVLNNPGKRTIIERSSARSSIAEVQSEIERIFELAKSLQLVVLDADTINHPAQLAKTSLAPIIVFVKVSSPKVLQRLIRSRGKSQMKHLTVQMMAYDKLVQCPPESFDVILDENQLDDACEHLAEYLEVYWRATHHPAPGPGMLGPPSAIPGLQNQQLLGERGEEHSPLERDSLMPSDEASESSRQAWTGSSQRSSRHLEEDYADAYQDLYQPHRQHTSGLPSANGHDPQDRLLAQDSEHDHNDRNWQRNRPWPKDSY
T1 sequence (P54290 25-1091 partner): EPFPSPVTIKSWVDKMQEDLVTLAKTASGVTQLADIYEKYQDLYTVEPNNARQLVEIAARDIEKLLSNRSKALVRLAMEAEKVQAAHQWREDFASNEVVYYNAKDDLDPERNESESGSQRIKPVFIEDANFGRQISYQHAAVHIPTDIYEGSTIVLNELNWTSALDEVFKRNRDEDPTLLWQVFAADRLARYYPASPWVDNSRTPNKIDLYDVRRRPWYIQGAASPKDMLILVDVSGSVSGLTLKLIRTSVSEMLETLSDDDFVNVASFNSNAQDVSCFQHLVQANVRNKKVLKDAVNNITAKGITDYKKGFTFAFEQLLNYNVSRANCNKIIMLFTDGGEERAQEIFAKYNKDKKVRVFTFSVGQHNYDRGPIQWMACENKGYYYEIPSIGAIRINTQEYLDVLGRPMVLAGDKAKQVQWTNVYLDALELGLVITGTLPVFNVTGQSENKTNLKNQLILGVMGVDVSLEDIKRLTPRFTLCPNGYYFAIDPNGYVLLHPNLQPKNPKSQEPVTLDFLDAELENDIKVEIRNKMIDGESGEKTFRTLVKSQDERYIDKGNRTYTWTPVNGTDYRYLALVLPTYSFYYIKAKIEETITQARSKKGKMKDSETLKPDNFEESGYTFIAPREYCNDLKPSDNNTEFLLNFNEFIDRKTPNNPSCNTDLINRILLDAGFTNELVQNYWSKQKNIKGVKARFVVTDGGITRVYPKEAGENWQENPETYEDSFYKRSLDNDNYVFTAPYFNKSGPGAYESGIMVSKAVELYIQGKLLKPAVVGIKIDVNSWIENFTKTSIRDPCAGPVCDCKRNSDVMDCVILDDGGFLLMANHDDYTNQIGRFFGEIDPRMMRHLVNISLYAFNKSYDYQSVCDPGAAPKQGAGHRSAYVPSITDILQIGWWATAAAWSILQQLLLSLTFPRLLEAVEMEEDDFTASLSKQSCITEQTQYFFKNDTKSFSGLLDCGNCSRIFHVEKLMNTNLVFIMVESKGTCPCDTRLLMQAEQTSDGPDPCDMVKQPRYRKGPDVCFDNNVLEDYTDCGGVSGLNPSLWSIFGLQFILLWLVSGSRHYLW

[7] = molecular target: CRMP2 (Mus musculus, UniProt O08553); assay: 1D 1H STD NMR binding to CRMP2
Protocol: 1D ^1H STD NMR showing on-resonance spectrum for CRMP2 with probe AZ194. Asterisks correspond to protons. […] NMR was performed on an AVANCE III 400 Mhz specrometer equipped with a Bruker PABBO 400S1 probe and SampleJet carousel that can hold up to 96 NMR tubes. The on-resonance excitation was set at 0.81 ppm (to irradiate protein methyl groups) and off-resonance set to 30 ppm. A 15 ms spin-lock was used to suppress the protein signal, followed by the double PFG spin echo to remove residual water signal. Spectra processing and analysis were performed with Topspin3.1 and MestReNova 7.1.

[8] = molecular target: Ubc9 (Homo sapiens, UniProt P63279); assay: 1D 1H STD NMR binding to Ubc9
Sequence of Ubc9 (P63279 whole entry, species assumed): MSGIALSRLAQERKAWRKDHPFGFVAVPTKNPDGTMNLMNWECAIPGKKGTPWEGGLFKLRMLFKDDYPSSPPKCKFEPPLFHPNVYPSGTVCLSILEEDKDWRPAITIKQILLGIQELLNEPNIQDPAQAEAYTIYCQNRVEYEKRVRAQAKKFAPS

[9] = system: other NaV1.x channels; assay: Whole-cell patch clamp, other NaV1.x channels; assay type: cell-based
[10] = molecular target: hERG (Homo sapiens, UniProt Q12809); conditions: 20 μM, hEK293 cells; listed as ReN 194
[11] = system: NaV channels; assay: Frequency (use)-dependent block of sodium current in DRG neurons; assay type: cell-based; conditions: 5 μM, thirty test pulses at 10 Hz, listed as ReN 206
Protocol: Control DRG neurons were treated with 0.03% DMSO (squares). Thirty, identical test pulses were applied at 10 Hz. The difference in available current was calculated by dividing the peak current at any given pulse (pulseN) by the peak current in response to the initial pulse (pulsei). Data are from 5-6 cells per condition.
The ability to block Na^+ currents in an activity- or use-dependent manner is a useful property for drugs since it allows for preferential decreases in sodium channel availability during high—(i.e., hyperexcitable ‘pain’ neurons) but not low-frequency firing.

Row | Compound | biophysical properties of inactivation ([1]; any time point versus control) | direct block of NaV1.7 channels (normalized peak sodium current density) ([1]; indicated incubation times) | Penk mRNA (proenkephalin), normalized to L27 ribosomal RNA [2] | paw withdrawal thresholds (PWTs) ([3]; intrathecal injection 0.5 μg/5 μl) | area under the curve (AUC) for PWT ([3]; spinal administration, full experimental duration) | reduction of TTX-S NaV1.7 currents [4] [%] | inhibition of NaV1.7 (concentration-response curve) [5] | effect on peak CaV2.2 currents [6] | effect on peak CaV2.2 currents ([6]; listed as ReN 194) | binding to CRMP2 (STD NMR) [7] | binding to Ubc9 (STD NMR) [8] | effect on other NaV1.x channels [9] | effect on other NaV1.x channels ([9]; highest concentration of 20 μM) | effect on hERG K+ currents [10] | frequency (use)-dependent decrease in current amplitude [11]
1 | COc1cc(C(=O)N2CCC(c3nc4ccccc4n3Cc3cccc(F)c3)CC2)ccc1OCc1cccc(F)c1 [AZ194, (4-(1-(3-fluorobenzyl)-1H-benzo[d]imidazol-2-yl)piperidin-1-yl)(4-((3-fluorobenzyl)oxy)-3-methoxyphenyl)methanone] | not altered | does not directly block | upregulates; also recorded: increased | significantly increased; also recorded: significantly reversed | reversal of mechanical allodynia | ~66 | nanomolar potency | no inhibition | did not affect | binds | No binding was observed | not affected | no inhibition | did not affect | 
2 | Fc1ccc(Oc2ccc(CN3CCC(c4nc5ccccc5[nH]4)CC3)cc2)cc1 [AZ206, 2-(1-(4-(4-fluorophenoxy)benzyl)piperidin-4-yl)-1H-benzo[d]imidazole] |  |  |  |  |  |  |  |  |  |  |  |  |  |  | use-dependent inhibitor; also recorded: decrease in current amplitude
3 | COc1cc(C(=O)N2CCC(c3nc4ccccc4n3Cc3cccc(F)c3)CC2)ccc1OCc1cccc(F)c1 [drawing 20] |  |  | upregulation |  |  |  |  |  |  |  |  |  |  |  | 
